Drawing on PubChem BioAssay (NCI), this text covers TGI for 5 molecules.

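96-well plates; 48 h exposure; 5 concentrations. Endpoints by linear interpolation between flanking doses. Not reached: highest tested concentration assigned. At the TGI there is no net growth.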 Where only a bound is given, the exact number is not on record here.

Among the test systems are DLD-1 colon; DMS 114 small cell lung; HOP-18 NSCLC; M19-MEL melanoma; P388 leukemia; P388/ADR leukemia; SN12K1 renal; LXFL 529 NSCLC; RXF-631 renal.
What all share (test): NCI tumour cell line growth inhibition, 48 h

As to `CC1OC(CO)(n2cnc3c(N)ncnc32)C(O)C1O` (stereo not drawn), the TGI in the test with DLD-1 colon, with DMS 114 small cell lung, with HOP-18 NSCLC, with M19-MEL melanoma, in the test with P388 leukemia and in the test with P388/ADR leukemia was more than 100 µM each time. Besides, the TGI with SN12K1 renal was more than 100 µM.
On to `NC(CSCSCC(N)C(=O)O)C(=O)O` (stereo not drawn), for which the TGI is more than 225 µM with DLD-1 colon; more than 225 µM in the test on DMS 114 small cell lung; more than 225 µM in the test with HOP-18 NSCLC; more than 225 µM with M19-MEL melanoma; more than 71.2 µM in the test with P388 leukemia; more than 225 µM in the test with P388/ADR leukemia. In the test with SN12K1 renal, this molecule displayed a TGI of more than 225 µM.
Take `O=c1oc2ccccc2n1P(=O)(Oc1ccc(Cl)cc1)n1c(=O)oc2ccccc21`: the TGI with DLD-1 colon, in the test with DMS 114 small cell lung, in the test on HOP-18 NSCLC and with M19-MEL melanoma was more than 100 µM throughout.
Consider `O=C1CCC2COc3ccc(O)c1c32` (stereo not drawn), for which the TGI in the test on DMS 114 small cell lung, in the test with HOP-18 NSCLC, in the test with LXFL 529 NSCLC and in the test with M19-MEL melanoma was more than 100 µM each time.
For `CC(C)(C)CI`, the TGI with DLD-1 colon was more than 100 µM; with DMS 114 small cell lung it was 48.3 µM; in the test on HOP-18 NSCLC it was more than 10 µM; in the test on LXFL 529 NSCLC, more than 100 µM; in the test on M19-MEL melanoma, 53.9 µM; in the test with RXF-631 renal, more than 100 µM.
